According to PubChem BioAssay (NCI):
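Each compound was tested at five concentrations against cells in 96-well plates for 48 hours. GI50 = concentration required for 50% inhibition of growth. TGI is the concentration that stops growth completely.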

What was measured:
Experiment in all cases: inhibition of tumour cell growth, NCI panel, 48 h
A549 NSCLC = test system: A549 NSCLC
DU-145 prostate = test system: DU-145 prostate
MCF7 breast = test system: MCF7 breast
NCI-H23 lung = test system: NCI-H23 lung
SF-539 CNS = test system: SF-539 CNS
SK-OV-3 ovarian = test system: SK-OV-3 ovarian
SW-620 colon = test system: SW-620 colon
UACC-62 melanoma = test system: UACC-62 melanoma
HT29 colon = test system: HT29 colon
NCI-H522 lung = test system: NCI-H522 lung

SMILES: O=C(/C=C/c1cccc(Cl)c1)c1ccccc1
- GI50 (A549 NSCLC): 14.9 µM
- TGI (A549 NSCLC): 29.3 µM
- GI50 (DU-145 prostate): 11.7 µM
- TGI (DU-145 prostate): 24.2 µM
- GI50 (MCF7 breast): 1.68 µM
- TGI (MCF7 breast): 10.3 µM
- GI50 (NCI-H23 lung): 14.8 µM
- TGI (NCI-H23 lung): 29.6 µM
- GI50 (SF-539 CNS): 13.6 µM
- TGI (SF-539 CNS): 28.8 µM
- GI50 (SK-OV-3 ovarian): 16.7 µM
- TGI (SK-OV-3 ovarian): 30.9 µM
- GI50 (SW-620 colon): 1.47 µM
- TGI (SW-620 colon): 2.97 µM
- GI50 (UACC-62 melanoma): 13.9 µM
- TGI (UACC-62 melanoma): 27.9 µM

SMILES: Cc1cc(N)c2cc(NC(=O)/C=C\c3ccccc3Cl)ccc2n1
- GI50 (A549 NSCLC): 1.71 µM
- TGI (A549 NSCLC): 3.25 µM
- GI50 (DU-145 prostate): 1.45 µM
- TGI (DU-145 prostate): 2.87 µM
- GI50 (HT29 colon): 0.41 µM
- TGI (HT29 colon): 1.5 µM
- GI50 (NCI-H23 lung): 1.73 µM
- TGI (NCI-H23 lung): 3.32 µM
- GI50 (NCI-H522 lung): 1.71 µM
- TGI (NCI-H522 lung): 3.29 µM
- GI50 (SF-539 CNS): 1.69 µM
- TGI (SF-539 CNS): 3.07 µM
- GI50 (SK-OV-3 ovarian): 1.85 µM
- TGI (SK-OV-3 ovarian): 3.27 µM
- GI50 (SW-620 colon): 0.214 µM
- TGI (SW-620 colon): 0.478 µM
- GI50 (UACC-62 melanoma): 1.05 µM
- TGI (UACC-62 melanoma): 2.49 µM

SMILES: COc1cc(/C=C2\CC3C4CC=C5C[C@@H](N6CCCC6)CC[C@]5(C)C4CC[C@]3(C)[C@H]2OC(C)=O)ccc1OCCCn1ccnc1 (stereo partly drawn)
- GI50 (A549 NSCLC): 2.79 µM
- TGI (A549 NSCLC): 10.3 µM
- GI50 (DU-145 prostate): 0.17 µM
- TGI (DU-145 prostate): 1.49 µM
- GI50 (HT29 colon): 0.162 µM
- TGI (HT29 colon): > 50 µM
- GI50 (MCF7 breast): 1.14 µM
- TGI (MCF7 breast): > 21.8 µM
- GI50 (NCI-H23 lung): 4 µM
- TGI (NCI-H23 lung): 7.96 µM
- GI50 (NCI-H522 lung): 3.86 µM
- TGI (NCI-H522 lung): > 27.5 µM
- GI50 (SF-539 CNS): 0.196 µM
- TGI (SF-539 CNS): 0.459 µM
- GI50 (SW-620 colon): 0.232 µM
- TGI (SW-620 colon): 1.21 µM
- GI50 (UACC-62 melanoma): 0.63 µM
- TGI (UACC-62 melanoma): 2.26 µM

SMILES: CCOC(=O)CCC(NC(=O)c1ccc(Oc2nc3cc(N)cc(N)c3nc2-c2ccccc2)cc1)C(=O)OCC (stereo not drawn)
- GI50 (A549 NSCLC): > 100 µM
- TGI (A549 NSCLC): > 100 µM
- GI50 (DU-145 prostate): 62.2 µM
- TGI (DU-145 prostate): > 100 µM
- GI50 (MCF7 breast): 53.6 µM
- TGI (MCF7 breast): > 100 µM
- GI50 (NCI-H23 lung): 15.5 µM
- TGI (NCI-H23 lung): 30.4 µM
- GI50 (NCI-H522 lung): 27.5 µM
- TGI (NCI-H522 lung): > 100 µM
- GI50 (SF-539 CNS): 34 µM
- TGI (SF-539 CNS): > 100 µM
- GI50 (SK-OV-3 ovarian): 27.9 µM
- TGI (SK-OV-3 ovarian): 97.7 µM
- GI50 (SW-620 colon): 29.5 µM
- TGI (SW-620 colon): > 100 µM
- GI50 (UACC-62 melanoma): 16.1 µM
- TGI (UACC-62 melanoma): 31 µM

SMILES: COc1ccc(C)cc1-c1ccc(-c2cc(C)ccc2OC)o1
- TGI (A549 NSCLC): > 100 µM
- TGI (HT29 colon): > 100 µM
- TGI (NCI-H23 lung): > 100 µM
- TGI (NCI-H522 lung): > 100 µM
- TGI (SF-539 CNS): > 100 µM
- TGI (SK-OV-3 ovarian): > 100 µM
- TGI (SW-620 colon): > 100 µM
- TGI (UACC-62 melanoma): > 100 µM

SMILES: CN(C)c1ccc(-c2nc(N)nc3c2CCCC3)cc1
- TGI (A549 NSCLC): > 100 µM
- TGI (NCI-H23 lung): > 100 µM
- TGI (NCI-H522 lung): 98.1 µM
- TGI (SF-539 CNS): > 100 µM
- TGI (SK-OV-3 ovarian): > 100 µM
- TGI (SW-620 colon): > 100 µM
- TGI (UACC-62 melanoma): > 100 µM

SMILES: COc1cc(Br)c(C=Nc2cccc3ccc(OS(=O)(=O)c4ccc([N+](=O)[O-])cc4)cc23)cc1OC
- TGI (A549 NSCLC): > 100 µM
- TGI (HT29 colon): > 100 µM
- TGI (NCI-H23 lung): > 100 µM
- TGI (NCI-H522 lung): > 100 µM
- TGI (SF-539 CNS): > 100 µM
- TGI (SK-OV-3 ovarian): > 100 µM
- TGI (SW-620 colon): > 100 µM
- TGI (UACC-62 melanoma): > 100 µM

SMILES: O=S(=O)(c1ccccc1)C1(C2(S(=O)(=O)c3ccccc3)CCN=N2)CCN=N1 (stereo not drawn)
- TGI (A549 NSCLC): > 100 µM
- TGI (HT29 colon): > 100 µM
- TGI (NCI-H23 lung): > 100 µM
- TGI (NCI-H522 lung): > 100 µM
- TGI (SF-539 CNS): > 100 µM
- TGI (SK-OV-3 ovarian): > 100 µM
- TGI (SW-620 colon): > 100 µM

SMILES: O=C1C[C@@H]2[C@@H](C=CC23CCCC3)N1O
- TGI (A549 NSCLC): > 100 µM
- TGI (HT29 colon): > 100 µM
- TGI (NCI-H23 lung): > 100 µM
- TGI (NCI-H522 lung): > 100 µM
- TGI (SF-539 CNS): > 100 µM
- TGI (SK-OV-3 ovarian): > 100 µM
- TGI (SW-620 colon): > 100 µM
- TGI (UACC-62 melanoma): > 100 µM
